Patent US11634404B2 (priority 2016, dated 2023)

Assays:
Format in all cases: cell-based
panel of 168 GPCRs [1] = target: panel of 168 GPCRs (Homo sapiens, UniProt P21728); settings: GPCR DRD1; agonist, 10 μM
panel of 168 GPCRs [2] = target: panel of 168 GPCRs (Homo sapiens, UniProt Q9HC97); settings: GPCR GPR35; agonist, 10 μM
panel of 168 GPCRs [3] = target: panel of 168 GPCRs (Homo sapiens, UniProt Q01726); settings: GPCR MC1R; agonist, 10 μM
panel of 168 GPCRs [4] = target: panel of 168 GPCRs (Homo sapiens, UniProt P51582); settings: GPCR P2RY4; agonist, 10 μM
panel of 168 GPCRs [5] = target: panel of 168 GPCRs (Homo sapiens, UniProt P33032); settings: GPCR MC5R; agonist, 10 μM
panel of 168 GPCRs [6] = target: panel of 168 GPCRs (Homo sapiens, UniProt O43613); settings: GPCR HCRTR1; agonist, 10 μM
panel of 168 GPCRs [7] = target: panel of 168 GPCRs (Homo sapiens, UniProt Q96LB2); settings: GPCR MRGPRX1; agonist, 10 μM
panel of 168 GPCRs [8] = target: panel of 168 GPCRs (Homo sapiens, UniProt P49682); settings: GPCR CXCR3; agonist, 10 μM
panel of 168 GPCRs [9] = target: panel of 168 GPCRs (Homo sapiens, UniProt P25021); settings: GPCR HRH2; agonist, 10 μM
panel of 168 GPCRs [10] = target: panel of 168 GPCRs (Homo sapiens, UniProt P48146); settings: GPCR NPBWR2; agonist, 10 μM
panel of 168 GPCRs [11] = target: panel of 168 GPCRs (Homo sapiens, UniProt P32248); settings: GPCR CCR7; agonist, 10 μM
panel of 168 GPCRs [12] = target: panel of 168 GPCRs (Homo sapiens, UniProt Q9H244); settings: GPCR P2RY12; agonist, 10 μM
panel of 168 GPCRs [13] = target: panel of 168 GPCRs (Homo sapiens, UniProt P21731); settings: GPCR TBXA2R; agonist, 10 μM
panel of 168 GPCRs [14] = target: panel of 168 GPCRs (Homo sapiens, UniProt P25106); settings: GPCR CXCR7; agonist, 10 μM
panel of 168 GPCRs [15] = target: panel of 168 GPCRs (Homo sapiens, UniProt Q15077); settings: GPCR P2RY6; agonist, 10 μM
panel of 168 GPCRs [16] = target: panel of 168 GPCRs (Homo sapiens, UniProt P32238); settings: GPCR CCKAR; agonist, 10 μM
panel of 168 GPCRs [17] = target: panel of 168 GPCRs (Homo sapiens, UniProt P21452); settings: GPCR TACR2; agonist, 10 μM
panel of 168 GPCRs [18] = target: panel of 168 GPCRs (Homo sapiens, UniProt Q9GZQ6); settings: GPCR NPFFR1; agonist, 10 μM
panel of 168 GPCRs [19] = target: panel of 168 GPCRs (Homo sapiens, UniProt P08912); settings: GPCR CHRM5; agonist, 10 μM
panel of 168 GPCRs [20] = target: panel of 168 GPCRs (Homo sapiens, UniProt P49683); settings: GPCR PRLHR; agonist, 10 μM
panel of 168 GPCRs [21] = target: panel of 168 GPCRs (Homo sapiens, UniProt Q9H3N8); settings: GPCR HRH4; agonist, 10 μM
panel of 168 GPCRs [22] = target: panel of 168 GPCRs (Homo sapiens, UniProt P34972); settings: GPCR CNR2; agonist, 10 μM
panel of 168 GPCRs [23] = target: panel of 168 GPCRs (Homo sapiens, UniProt Q13324); settings: GPCR CRHR2; agonist, 10 μM
panel of 168 GPCRs [24] = target: panel of 168 GPCRs (Homo sapiens, UniProt P23945); settings: GPCR FSHR; agonist, 10 μM
panel of 168 GPCRs [25] = target: panel of 168 GPCRs (Homo sapiens, UniProt P25116); settings: GPCR F2R; agonist, 10 μM
panel of 168 GPCRs [26] = target: panel of 168 GPCRs (Homo sapiens, UniProt P51681); settings: GPCR CCR5; agonist, 10 μM
panel of 168 GPCRs [27] = target: panel of 168 GPCRs (Homo sapiens, UniProt P08173); settings: GPCR CHRM4; agonist, 10 μM
panel of 168 GPCRs [28] = target: panel of 168 GPCRs (Homo sapiens, UniProt P43115); settings: GPCR PTGER3; agonist, 10 μM
panel of 168 GPCRs [29] = target: panel of 168 GPCRs (Homo sapiens, UniProt P08908); settings: GPCR HTR1A; agonist, 10 μM
panel of 168 GPCRs [30] = target: panel of 168 GPCRs (Homo sapiens, UniProt P28335); settings: GPCR HTR2C; agonist, 10 μM
panel of 168 GPCRs [31] = target: panel of 168 GPCRs (Homo sapiens, UniProt Q8TDV5); settings: GPCR GPR119; agonist, 10 μM
panel of 168 GPCRs [32] = target: panel of 168 GPCRs (Homo sapiens, UniProt P35346); settings: GPCR SSTR5; agonist, 10 μM

Measured: β-Arrestin Recruitment activity

panel of 168 GPCRs (Homo sapiens, UniProt P32248), sequence (P32248 25-378 limits assumed): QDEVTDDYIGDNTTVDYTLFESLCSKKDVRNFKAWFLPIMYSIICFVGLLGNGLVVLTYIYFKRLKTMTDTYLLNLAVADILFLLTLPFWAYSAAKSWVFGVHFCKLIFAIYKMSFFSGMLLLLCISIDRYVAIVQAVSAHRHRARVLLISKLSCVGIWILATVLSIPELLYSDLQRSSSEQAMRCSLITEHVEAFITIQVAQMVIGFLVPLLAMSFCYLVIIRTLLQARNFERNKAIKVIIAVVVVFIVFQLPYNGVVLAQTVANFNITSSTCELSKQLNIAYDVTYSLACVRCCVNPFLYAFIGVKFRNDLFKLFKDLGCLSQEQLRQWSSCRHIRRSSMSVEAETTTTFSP
panel of 168 GPCRs (Homo sapiens, UniProt P23945), sequence (P23945 18-695 limits assumed): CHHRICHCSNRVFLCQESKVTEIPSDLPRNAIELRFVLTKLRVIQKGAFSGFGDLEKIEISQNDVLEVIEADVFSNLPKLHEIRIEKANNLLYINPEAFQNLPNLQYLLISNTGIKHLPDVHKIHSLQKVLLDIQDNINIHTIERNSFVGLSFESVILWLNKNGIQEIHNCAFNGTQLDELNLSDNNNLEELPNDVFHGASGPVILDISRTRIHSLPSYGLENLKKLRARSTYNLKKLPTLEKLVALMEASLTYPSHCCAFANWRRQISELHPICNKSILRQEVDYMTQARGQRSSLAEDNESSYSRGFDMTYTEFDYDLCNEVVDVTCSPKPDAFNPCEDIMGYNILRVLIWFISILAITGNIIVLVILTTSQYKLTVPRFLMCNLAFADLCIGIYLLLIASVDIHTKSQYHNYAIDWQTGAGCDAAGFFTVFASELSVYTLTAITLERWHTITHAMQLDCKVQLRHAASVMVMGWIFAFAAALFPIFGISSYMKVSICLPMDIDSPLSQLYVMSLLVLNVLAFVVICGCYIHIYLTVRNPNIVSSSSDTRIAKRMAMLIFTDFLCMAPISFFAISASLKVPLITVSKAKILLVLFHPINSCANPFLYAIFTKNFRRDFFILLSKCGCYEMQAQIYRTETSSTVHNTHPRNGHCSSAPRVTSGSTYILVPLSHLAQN
panel of 168 GPCRs (Homo sapiens, UniProt P28335), sequence (P28335 33-458 limits assumed): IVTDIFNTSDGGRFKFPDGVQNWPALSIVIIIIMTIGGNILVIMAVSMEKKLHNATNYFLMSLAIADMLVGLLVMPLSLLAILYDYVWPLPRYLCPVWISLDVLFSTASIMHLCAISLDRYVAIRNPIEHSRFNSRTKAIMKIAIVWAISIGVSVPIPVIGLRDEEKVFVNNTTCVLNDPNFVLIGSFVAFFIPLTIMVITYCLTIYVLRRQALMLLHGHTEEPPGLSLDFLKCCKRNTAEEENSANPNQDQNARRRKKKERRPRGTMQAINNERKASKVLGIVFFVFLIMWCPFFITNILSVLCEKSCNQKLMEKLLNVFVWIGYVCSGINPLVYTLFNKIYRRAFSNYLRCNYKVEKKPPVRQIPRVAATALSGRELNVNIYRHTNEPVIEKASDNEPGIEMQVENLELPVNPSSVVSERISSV
panel of 168 GPCRs (Homo sapiens, UniProt P25116), sequence (P25116 22-425 limits assumed): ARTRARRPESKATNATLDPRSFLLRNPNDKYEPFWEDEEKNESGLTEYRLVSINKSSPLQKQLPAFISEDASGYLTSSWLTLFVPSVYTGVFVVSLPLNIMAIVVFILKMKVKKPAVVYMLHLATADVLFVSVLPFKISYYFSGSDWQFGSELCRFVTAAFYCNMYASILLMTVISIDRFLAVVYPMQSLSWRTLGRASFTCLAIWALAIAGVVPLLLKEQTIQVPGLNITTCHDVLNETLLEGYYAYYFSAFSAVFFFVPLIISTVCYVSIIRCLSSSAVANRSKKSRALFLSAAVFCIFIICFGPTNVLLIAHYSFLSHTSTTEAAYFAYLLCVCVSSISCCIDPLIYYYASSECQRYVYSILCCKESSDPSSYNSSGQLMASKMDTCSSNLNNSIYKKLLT

COc1ccc(OCCN2CCN(C(=O)c3cc4ccccc4[nH]3)CC2)cc1 [Compound 1, (1H-indol-2-yl)(4-(2-(4-methoxyphenoxy)ethyl)piperazin-1-yl)methanone]
13%: panel of 168 GPCRs [4]
4%: panel of 168 GPCRs [11] | panel of 168 GPCRs [12] | panel of 168 GPCRs [18] | panel of 168 GPCRs [20]
6%: panel of 168 GPCRs [2] | panel of 168 GPCRs [15] | panel of 168 GPCRs [30]
8%: panel of 168 GPCRs [21] | panel of 168 GPCRs [29]
−14%: panel of 168 GPCRs [22]
0%: panel of 168 GPCRs [1] | panel of 168 GPCRs [6] | panel of 168 GPCRs [13] | panel of 168 GPCRs [16] | panel of 168 GPCRs [23] | panel of 168 GPCRs [26]
16%: panel of 168 GPCRs [31]
5%: panel of 168 GPCRs [3] | panel of 168 GPCRs [5] | panel of 168 GPCRs [8] | panel of 168 GPCRs [24] | panel of 168 GPCRs [25]
3%: all other assays above
